Experimental data published in patent US20130109682A1, “CYCLIC ETHER COMPOUNDS USEFUL AS KINASE INHIBITORS” (NOVARTIS AG, priority 2010, published 2013).

Columns and labels:
FLT3D835Y kinase = molecular target: T1, FLT3D835Y kinase (Homo sapiens, UniProt P36888, D835Y); assay: FLT3D835Y kinase inhibition assay (LanthaScreen TR-FRET); format: biochemical; conditions: read-out: FLT3 IC50
T1 sequence (P36888 27-993 D835Y): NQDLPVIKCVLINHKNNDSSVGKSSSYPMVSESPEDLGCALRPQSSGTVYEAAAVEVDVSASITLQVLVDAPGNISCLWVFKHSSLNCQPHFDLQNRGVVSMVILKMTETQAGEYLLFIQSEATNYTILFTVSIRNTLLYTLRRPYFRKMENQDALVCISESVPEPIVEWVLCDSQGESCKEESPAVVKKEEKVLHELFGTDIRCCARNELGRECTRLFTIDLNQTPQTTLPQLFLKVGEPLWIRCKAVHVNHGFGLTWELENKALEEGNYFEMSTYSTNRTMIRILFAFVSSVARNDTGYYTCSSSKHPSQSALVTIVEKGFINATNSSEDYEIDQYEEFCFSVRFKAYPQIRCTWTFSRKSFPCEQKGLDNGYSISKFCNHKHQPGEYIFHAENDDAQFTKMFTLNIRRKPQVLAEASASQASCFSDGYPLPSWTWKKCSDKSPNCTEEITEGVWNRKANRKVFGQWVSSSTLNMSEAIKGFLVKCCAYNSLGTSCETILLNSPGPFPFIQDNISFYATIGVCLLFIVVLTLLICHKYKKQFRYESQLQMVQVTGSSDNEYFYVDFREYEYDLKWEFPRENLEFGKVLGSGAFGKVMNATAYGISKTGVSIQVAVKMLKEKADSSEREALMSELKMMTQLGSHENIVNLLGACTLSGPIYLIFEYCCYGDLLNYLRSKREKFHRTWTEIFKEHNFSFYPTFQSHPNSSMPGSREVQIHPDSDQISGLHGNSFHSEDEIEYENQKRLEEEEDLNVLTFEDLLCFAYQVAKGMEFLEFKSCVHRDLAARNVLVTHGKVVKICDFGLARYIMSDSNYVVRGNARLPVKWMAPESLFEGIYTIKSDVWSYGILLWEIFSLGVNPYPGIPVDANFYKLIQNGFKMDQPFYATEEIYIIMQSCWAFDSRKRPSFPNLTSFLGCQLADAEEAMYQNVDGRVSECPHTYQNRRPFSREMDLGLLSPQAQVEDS
Summary of the method: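 TR-FRET with 5.7 nM FLT3D835Y, 50 nM polyEAY substrate, 2 μM ATP (f.c.), 3 mM Mg and 3 mM Mn in 50 mM TRIS-HCl pH 7.4 with DTT, Tween 20 and Na3VO4. Reaction 1 h, stopped with EDTA, then Tb-labeled P-20 antibody for 45 min; single end-point reading.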

FGFR3 kinase = FGFR3 kinase (Homo sapiens, UniProt P22607); assay: FGFR3 kinase inhibition assay (LanthaScreen TR-FRET); format: biochemical
FGFR3 kinase, sequence (P22607 23-806): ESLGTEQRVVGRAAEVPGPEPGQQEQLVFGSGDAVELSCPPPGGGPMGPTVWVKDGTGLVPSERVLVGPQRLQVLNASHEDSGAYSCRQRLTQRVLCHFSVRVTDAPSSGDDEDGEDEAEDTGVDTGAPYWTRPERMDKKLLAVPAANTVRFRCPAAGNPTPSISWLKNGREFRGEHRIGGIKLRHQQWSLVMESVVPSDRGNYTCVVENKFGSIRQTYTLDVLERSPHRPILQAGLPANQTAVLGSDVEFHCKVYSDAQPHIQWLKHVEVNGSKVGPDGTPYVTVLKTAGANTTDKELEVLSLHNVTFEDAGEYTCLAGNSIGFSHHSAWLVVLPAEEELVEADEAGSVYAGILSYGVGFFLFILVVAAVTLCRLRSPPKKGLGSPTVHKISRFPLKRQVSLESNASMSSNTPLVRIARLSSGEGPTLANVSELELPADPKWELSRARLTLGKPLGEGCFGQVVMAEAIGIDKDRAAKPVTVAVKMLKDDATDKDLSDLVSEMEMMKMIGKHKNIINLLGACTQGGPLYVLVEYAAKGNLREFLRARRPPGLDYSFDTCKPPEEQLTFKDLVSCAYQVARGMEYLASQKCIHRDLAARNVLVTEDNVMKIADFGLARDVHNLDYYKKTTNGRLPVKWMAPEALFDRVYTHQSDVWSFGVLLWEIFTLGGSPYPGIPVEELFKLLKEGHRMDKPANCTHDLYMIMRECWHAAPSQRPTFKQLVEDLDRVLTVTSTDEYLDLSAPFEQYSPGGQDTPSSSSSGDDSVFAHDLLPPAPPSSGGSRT

[1] = tested on: KMS11 (human myeloma cell line); assay: Cell proliferation assay (CellTiter-Glo), KMS11; format: cell-based; conditions: Homo sapiens, KMS-11; KMS11 cells, cell proliferation; read-out: KMS11-Luc EC50
Summary of the method: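 EC50 derived from CellTiter-Glo luminescence after 3-day exposure at 37° C. Compound was diluted to 2× in medium and added to an equal volume of cells. KMS11 myeloma cells were plated on assay day at 2000/well in IMDM with 10% FBS and sodium pyruvate.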

CC[C@H]1O[C@@H](c2ccncc2NC(=O)c2nc(-c3ccccc3)cnc2N)C[C@@H](N)[C@@H]1O [Example 343, 3-amino-N-(4-((2R,4R,5S,6R)-4-amino-6-ethyl-5-hydroxytetrahydro-2H-pyran-2-yl)pyridin-3-yl)-6-phenylpyrazine-2-carboxamide]
IC50 (FLT3D835Y kinase): 1.8 nM | IC50 (FGFR3 kinase): 35 nM | EC50 [1]: 150 nM

C[C@]1(O)[C@H](N)C[C@H](c2ccncc2NC(=O)c2nc(-c3ccccc3)cnc2N)O[C@@H]1C1CC1 [Example 344, 3-amino-N-(4-((2R,4R,5S,6R)-4-amino-6-cyclopropyl-5-hydroxy-5-methyltetrahydro-2H-pyran-2-yl)pyridin-3-yl)-6-phenylpyrazine-2-carboxamide]
IC50 (FLT3D835Y kinase): 10 nM | IC50 (FGFR3 kinase): 440 nM | EC50 [1]: 870 nM

CC[C@@H]1O[C@H](c2ccncc2NC(=O)c2nc(-c3ccccc3)cnc2N)C[C@H](N)[C@@]1(C)O [Example 345, 3-amino-N-(4-((2S,4S,5R,6S)-4-amino-6-ethyl-5-hydroxy-5-methyltetrahydro-2H-pyran-2-yl)pyridin-3-yl)-6-phenylpyrazine-2-carboxamide]
IC50 (FLT3D835Y kinase): 920 nM | IC50 (FGFR3 kinase): > 10000 nM | EC50 [1]: 3170 nM

Nc1ncc(-c2ccccc2)nc1C(=O)Nc1cnccc1[C@H]1C[C@@H](N)[C@H](O)[C@@H](C2CC2)O1 [Example 346, 3-amino-N-(4-((2R,4R,5S,6R)-4-amino-6-cyclopropyl-5-hydroxytetrahydro-2H-pyran-2-yl)pyridin-3-yl)-6-phenylpyrazine-2-carboxamide]
IC50 (FLT3D835Y kinase): 8.5 nM | IC50 (FGFR3 kinase): 180 nM | EC50 [1]: 470 nM

C[C@@]1(O)[C@@H](N)C[C@@H](c2ccncc2NC(=O)c2nc(-c3ccccc3)cnc2N)O[C@H]1C1CC1 [Example 347, 3-amino-N-(4-((2S,4S,5R,6S)-4-amino-6-cyclopropyl-5-hydroxy-5-methyltetrahydro-2H-pyran-2-yl)pyridin-3-yl)-6-phenylpyrazine-2-carboxamide]
IC50 (FLT3D835Y kinase): 770 nM | IC50 (FGFR3 kinase): 8800 nM | EC50 [1]: 2430 nM

CC[C@H]1O[C@@H](c2ccncc2NC(=O)c2nc(-c3ccccc3)cnc2N)C[C@@H](N)[C@]1(C)O [Example 348, 3-amino-N-(4-((2R,4R,5S,6R)-4-amino-6-ethyl-5-hydroxy-5-methyltetrahydro-2H-pyran-2-yl)pyridin-3-yl)-6-phenylpyrazine-2-carboxamide]
IC50 (FLT3D835Y kinase): 17 nM | IC50 (FGFR3 kinase): 420 nM | EC50 [1]: 1190 nM

Nc1ncc(-c2ccccc2)nc1C(=O)Nc1cnccc1[C@@H]1C[C@H](N)[C@@H](O)[C@H](C2CC2)O1 [Example 349, 3-amino-N-(4-((2S,4S,5R,6S)-4-amino-6-cyclopropyl-5-hydroxytetrahydro-2H-pyran-2-yl)pyridin-3-yl)-6-phenylpyrazine-2-carboxamide]
IC50 (FLT3D835Y kinase): 250 nM | IC50 (FGFR3 kinase): 6900 nM | EC50 [1]: 540 nM

CC(C)(C)[C@H]1O[C@@H](c2ccncc2NC(=O)c2nc(-c3ccccc3)cnc2N)C[C@@H](N)[C@@H]1O [Example 354, 3-amino-N-(4-((2R,4R,5S,6R)-4-amino-6-tert-butyl-5-hydroxytetrahydro-2H-pyran-2-yl)pyridin-3-yl)-6-phenylpyrazine-2-carboxamide]
IC50 (FLT3D835Y kinase): 3.1 nM | IC50 (FGFR3 kinase): 870 nM | EC50 [1]: 140 nM

CC(C)(C)[C@@H]1O[C@H](c2ccncc2NC(=O)c2nc(-c3ccccc3)cnc2N)C[C@H](N)[C@H]1O [Example 355, 3-amino-N-(4-((2S,4S,5R,6S)-4-amino-6-tert-butyl-5-hydroxytetrahydro-2H-pyran-2-yl)pyridin-3-yl)-6-phenylpyrazine-2-carboxamide]
IC50 (FLT3D835Y kinase): 2600 nM | IC50 (FGFR3 kinase): > 10000 nM | EC50 [1]: 210 nM

CC(C)[C@H]1O[C@@H](c2ccncc2NC(=O)c2nc(-c3ccccc3)cnc2N)C[C@@H](N)[C@@H]1O [Example 356, 3-amino-N-(4-((2R,4R,5S,6R)-4-amino-5-hydroxy-6-isopropyltetrahydro-2H-pyran-2-yl)pyridin-3-yl)-6-phenylpyrazine-2-carboxamide]
IC50 (FLT3D835Y kinase): 5.8 nM | IC50 (FGFR3 kinase): 220 nM | EC50 [1]: 180 nM
